# Laboratory results taken from PMC4992173, “Divergent synthesis and identification of the cellular targets of deoxyelephantopins” (Nature Communications, 2016).
# Tested on: Caco-2 cells
# Experiment: In situ global proteomics profiling of Caco-2 cells (LC-MS/MS, LFQ)
# Type: cell-based, human
# Conditions: LFQ
# Method: Figure 7 Identification of PPARγ as target of deoxyelephantopin and screening of DEP derivatives as PPARγ antagonists. (a) Quantification of endogenous PPARγ enriched from Caco-2 cells using 10 μM 24c following in situ treatment with DEP (20 μM) or DMSO (normalized LFQ values±s.d. are shown; n=6). (b) Changes in expression levels of five PPARγ-dependent proteins following 24 h treatment of Caco-2 cells with DMSO, rosiglitazone (10 μM), T0070907 (50 μM) or DEP (20 μM; LFQ ratios±s.d. are shown; n=3). **P<0.005 and ***P<0.0005 by two-sided Student's t-test. (c) Gel-based competitive screening of DEP and analogues as PPARγ antagonists against recombinant human enzyme (top). hPPARγ was treated with each compound (20 μM) for 1 h followed by treatment with 24c-Cy3 (10 μM) as probe. Quantification of fluorescence intensity in the competitive screening for PPARγ antagonists (bottom; values±s.d. are shown; n=3).
# Caco-2 cells were treated with DMSO, PPARγ agonist rosiglitazone, antagonist T0070907 or DEP for 24 h, the cells were collected and the proteomes were comparatively analysed by LC–MS/MS. […] Furthermore, the list of 43 dysregulated proteins was analysed and classified using the GOrilla pathway analysis tool (Supplementary Fig. 15). […]
# In situ global proteomics profiling using LC-MS/MS. Caco- ’ cells/mL) in a 6-well plate, allowed to grow to confluence and to differentiate for 28 days. The wells were washed one time with PBS and treated with either DMSO, 10 µM rosiglitazone, 50 µM T0070907 or 20 µM DEP for 24 hours. Cells were washed two times with PBS and lysates were prepared. Samples (30 µg) were denatured with 6 M urea in 50 mM NH4HCO3, reduced […]
# dark. Samples were diluted to 2 M urea with 50 mM NH4HCO3, and digested with trypsin ([…] for 12 hours at 37 °C. Samples were acidified to a final concentration of 5% acetic acid, desalted over a self-packed C18 spin column and […]
# dried. […]
# LC-MS/MS analysis. Peptides were resuspended in water with 0.1% formic acid (FA) and analyzed using Proxeon EASY-nLC 1000 nano-UHPLC coupled to QExactive Plus Quadrupole-Orbitrap mass spectrometer (Thermo Scientific). The chromatography column […]
# H2O (Buffer A) and 0.1% FA in MeCN (Buffer B). Peptides were eluted into the mass spectrometer at a flow rate of 300 nL/min. over a 240 min. linear gradient (3-35% Buffer B) at 50 °C. Data was acquired in data-dependent mode (top- N = ’ […]
# and isotope exclusion was enabled.
# MaxQuant analysis. The MS data was analyzed with MaxQuant (V1.5.2.8) and searched against the human proteome (Uniprot, 89,649 entries) and a common list of contaminants (included in MaxQuant). The first peptide search tolerance was set to 20 ppm, 10 ppm was used for the main peptide search and fragment mass tolerance was set to 0.02 Da. The false discovery rate for peptides, proteins and sites identification was set to 1%. The minimum peptide length was set to 6 amino acids and peptide re-quantification, label-free quantification (MaxLFQ) and “ ” were enabled. The minimal number of peptides per protein was set to two. Oxidized methionines and N-terminal acetylation were searched as variable modifications and carbamidomethylation of cysteines was searched as a fixed modification. For SILAC experiments 13C6 L-lysine and 13C6 15N4 L-arginine were set as heavy isotope labels and 12C6 L-lysine and 12C6 14N4 L-arginine as light isotope labels.
# 19 d k g h ARγ. 19a was covalently docked to the crystal structure of human γ ZU 190 using the GOLD suite (V5.3, CCDC). The default GOLD fitness function was used to determine the best binding configuration. The distance for hydrogen bonding was set to 3 Å.
# IAA competition of 23c, 24c and DEP h ARγ. γ
# (500 ng in 9 µL PBS) was treated with either 100 µM DEP, 23c, 24c or DMSO (1 µL of 10x stock in DMSO) for one hour. Samples were denatured with 6 M urea in 50 mM NH4HCO3, […]
# in the dark. Samples were diluted to 2 M urea with 50 mM NH4HCO3, and digested with trypsin […]
smiles,measurement,setting,value
"CN(CCOc1ccc(CC2SC(=O)NC2=O)cc1)c1ccccn1 (centres unmarked) [Rosiglitazone, rosiglitazone]",Log2 10 µM Rosiglitazone/DMSO,"protein ALDH3B1, 24 h",-0.32
same,Log2 10 µM Rosiglitazone/DMSO,"protein ARHGAP17, 24 h",0.39
same,Log2 10 µM Rosiglitazone/DMSO,"protein ARMCX3, 24 h",-0.36
same,Log2 10 µM Rosiglitazone/DMSO,"protein COL4A3BP, 24 h",-0.06
same,Log2 10 µM Rosiglitazone/DMSO,"protein CROT, 24 h",0.034
same,Log2 10 µM Rosiglitazone/DMSO,"protein CTBP2, 24 h",0.36
same,Log2 10 µM Rosiglitazone/DMSO,"protein DDX21, 24 h",0.15
same,Log2 10 µM Rosiglitazone/DMSO,"protein FNTA, 24 h",-0.12
same,Log2 10 µM Rosiglitazone/DMSO,"protein GID8, 24 h",0.46
same,Log2 10 µM Rosiglitazone/DMSO,"protein GIPC2, 24 h",0.0144
same,Log2 10 µM Rosiglitazone/DMSO,"protein GIT2, 24 h",-0.38
same,Log2 10 µM Rosiglitazone/DMSO,"protein GSTA1, 24 h",0.21
same,Log2 10 µM Rosiglitazone/DMSO,"protein GSTA2, 24 h",0.20
same,Log2 10 µM Rosiglitazone/DMSO,"protein GSTM3, 24 h",0.30
same,Log2 10 µM Rosiglitazone/DMSO,"protein HIGD1A, 24 h",0.43
same,Log2 10 µM Rosiglitazone/DMSO,"protein IREB2, 24 h",0.26
same,Log2 10 µM Rosiglitazone/DMSO,"protein ITGB4, 24 h",0.08
same,Log2 10 µM Rosiglitazone/DMSO,"protein LDHD, 24 h",-0.20
same,Log2 10 µM Rosiglitazone/DMSO,"protein LDLR, 24 h",0.49
same,Log2 10 µM Rosiglitazone/DMSO,"protein LIPA, 24 h",0.034
same,Log2 10 µM Rosiglitazone/DMSO,"protein MARCH5, 24 h",0.40
same,Log2 10 µM Rosiglitazone/DMSO,"protein MGMT, 24 h",-0.17
same,Log2 10 µM Rosiglitazone/DMSO,"protein MYO15B, 24 h",0.08
same,Log2 10 µM Rosiglitazone/DMSO,"protein NOP9, 24 h",0.07
same,Log2 10 µM Rosiglitazone/DMSO,"protein OAS1, 24 h",0.0144
same,Log2 10 µM Rosiglitazone/DMSO,"protein OGDHL, 24 h",0.10
same,Log2 10 µM Rosiglitazone/DMSO,"protein PANK4, 24 h",-0.34
same,Log2 10 µM Rosiglitazone/DMSO,"protein PHPT1, 24 h",-0.36
same,Log2 10 µM Rosiglitazone/DMSO,"protein PSIP1, 24 h",0.49
same,Log2 10 µM Rosiglitazone/DMSO,"protein RAB5B, 24 h",0.49
same,Log2 10 µM Rosiglitazone/DMSO,"protein RBP4, 24 h",0.20
same,Log2 10 µM Rosiglitazone/DMSO,"protein RRS1, 24 h",0.50
same,Log2 10 µM Rosiglitazone/DMSO,"protein SAMHD1, 24 h",-0.43
same,Log2 10 µM Rosiglitazone/DMSO,"protein SCAMP3, 24 h",0.45
same,Log2 10 µM Rosiglitazone/DMSO,"protein SETDB1, 24 h",0.08
same,Log2 10 µM Rosiglitazone/DMSO,"protein SLC26A3, 24 h",0.10
same,Log2 10 µM Rosiglitazone/DMSO,"protein SLC39A14, 24 h",-0.49
same,Log2 10 µM Rosiglitazone/DMSO,"protein STK4, 24 h",0.36
same,Log2 10 µM Rosiglitazone/DMSO,"protein SURF6, 24 h",0.26
same,Log2 10 µM Rosiglitazone/DMSO,"protein TGOLN2, 24 h",0.28
same,Log2 10 µM Rosiglitazone/DMSO,"protein TPD52L1, 24 h",-0.45
same,Log2 10 µM Rosiglitazone/DMSO,"protein TTR, 24 h",0.46
same,Log2 10 µM Rosiglitazone/DMSO,"protein VPS52, 24 h",0.42
O=C(Nc1ccncc1)c1cc([N+](=O)[O-])ccc1Cl [T0070907],Log2 50 µM T0070907/DMSO,"protein ALDH3B1, 24 h",-0.79
same,Log2 50 µM T0070907/DMSO,"protein ARHGAP17, 24 h",-0.81
same,Log2 50 µM T0070907/DMSO,"protein ARMCX3, 24 h",-0.71
same,Log2 50 µM T0070907/DMSO,"protein COL4A3BP, 24 h",-0.76
same,Log2 50 µM T0070907/DMSO,"protein CROT, 24 h",-0.85
same,Log2 50 µM T0070907/DMSO,"protein CTBP2, 24 h",0.83
same,Log2 50 µM T0070907/DMSO,"protein DDX21, 24 h",0.92
same,Log2 50 µM T0070907/DMSO,"protein FNTA, 24 h",-0.97
same,Log2 50 µM T0070907/DMSO,"protein GID8, 24 h",0.60
same,Log2 50 µM T0070907/DMSO,"protein GIPC2, 24 h",-0.69
same,Log2 50 µM T0070907/DMSO,"protein GIT2, 24 h",-0.89
same,Log2 50 µM T0070907/DMSO,"protein GSTA1, 24 h",-0.76
same,Log2 50 µM T0070907/DMSO,"protein GSTA2, 24 h",-0.80
same,Log2 50 µM T0070907/DMSO,"protein GSTM3, 24 h",-0.71
same,Log2 50 µM T0070907/DMSO,"protein HIGD1A, 24 h",0.70
same,Log2 50 µM T0070907/DMSO,"protein IREB2, 24 h",0.96
same,Log2 50 µM T0070907/DMSO,"protein ITGB4, 24 h",1.36
same,Log2 50 µM T0070907/DMSO,"protein LDHD, 24 h",-0.67
same,Log2 50 µM T0070907/DMSO,"protein LDLR, 24 h",1.99
same,Log2 50 µM T0070907/DMSO,"protein LIPA, 24 h",-0.85
same,Log2 50 µM T0070907/DMSO,"protein MARCH5, 24 h",1.21
same,Log2 50 µM T0070907/DMSO,"protein MGMT, 24 h",-0.69
same,Log2 50 µM T0070907/DMSO,"protein MYO15B, 24 h",-0.74
same,Log2 50 µM T0070907/DMSO,"protein NOP9, 24 h",1.10
same,Log2 50 µM T0070907/DMSO,"protein OAS1, 24 h",0.92
same,Log2 50 µM T0070907/DMSO,"protein OGDHL, 24 h",-1.02
same,Log2 50 µM T0070907/DMSO,"protein PANK4, 24 h",-0.81
same,Log2 50 µM T0070907/DMSO,"protein PHPT1, 24 h",-1.25
same,Log2 50 µM T0070907/DMSO,"protein PSIP1, 24 h",0.60
same,Log2 50 µM T0070907/DMSO,"protein RAB5B, 24 h",0.62
same,Log2 50 µM T0070907/DMSO,"protein RBP4, 24 h",-0.37
same,Log2 50 µM T0070907/DMSO,"protein RRS1, 24 h",0.77
same,Log2 50 µM T0070907/DMSO,"protein SAMHD1, 24 h",-0.81
same,Log2 50 µM T0070907/DMSO,"protein SCAMP3, 24 h",0.64
same,Log2 50 µM T0070907/DMSO,"protein SETDB1, 24 h",0.63
same,Log2 50 µM T0070907/DMSO,"protein SLC26A3, 24 h",-1.02
same,Log2 50 µM T0070907/DMSO,"protein SLC39A14, 24 h",-0.69
same,Log2 50 µM T0070907/DMSO,"protein STK4, 24 h",-0.81
same,Log2 50 µM T0070907/DMSO,"protein SURF6, 24 h",0.78
same,Log2 50 µM T0070907/DMSO,"protein TGOLN2, 24 h",0.93
same,Log2 50 µM T0070907/DMSO,"protein TPD52L1, 24 h",-1.09
same,Log2 50 µM T0070907/DMSO,"protein TTR, 24 h",-1.25
same,Log2 50 µM T0070907/DMSO,"protein VPS52, 24 h",0.77
